The values that follow come from patent publication US20120225061A1, “TETRASUBSTITUTED CYCLOHEXYL COMPOUNDS AS KINASE INHIBITORS” (priority 2011, published 2012).

In one experiment the target is Pim1 kinase (Homo sapiens, UniProt P11309). Put plainly: Pim1 AlphaScreen assay (high ATP). Background: Alpha assays give light when donor and acceptor beads are brought close together.
In the next experiment the target is Pim2 kinase (Homo sapiens, UniProt Q9P1W9). Kind of experiment: Pim2 AlphaScreen assay (high ATP).
A further experiment addresses Pim3 kinase (Homo sapiens, UniProt Q86V86). Kind of experiment: Pim3 AlphaScreen assay (high ATP).
Experiment [1] relates to KMS11 (human myeloma cell line). Put plainly: Cell proliferation assay (CellTiter-Glo) in KMS11 cells. It is filed as cell-based. As to conditions: KMS-11, 72 h, Table 5, 3 days, read-out: KMS11-luc EC50. The method in brief: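 KMS11 cells at 2000 per well in IMDM/10% FBS were exposed to compound for 3 days. Viability was read by CellTiter-Glo luminescence.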

Pim1 kinase, sequence (P11309 whole entry): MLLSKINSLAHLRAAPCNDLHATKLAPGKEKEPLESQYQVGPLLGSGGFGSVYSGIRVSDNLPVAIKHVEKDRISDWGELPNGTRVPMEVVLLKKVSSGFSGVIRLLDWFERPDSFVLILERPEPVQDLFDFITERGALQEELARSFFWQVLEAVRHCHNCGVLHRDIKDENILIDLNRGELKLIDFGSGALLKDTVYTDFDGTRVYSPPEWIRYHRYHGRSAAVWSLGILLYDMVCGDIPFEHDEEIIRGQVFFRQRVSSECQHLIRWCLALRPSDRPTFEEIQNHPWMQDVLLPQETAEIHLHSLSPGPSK
Pim2 kinase, sequence (Q9P1W9 whole entry): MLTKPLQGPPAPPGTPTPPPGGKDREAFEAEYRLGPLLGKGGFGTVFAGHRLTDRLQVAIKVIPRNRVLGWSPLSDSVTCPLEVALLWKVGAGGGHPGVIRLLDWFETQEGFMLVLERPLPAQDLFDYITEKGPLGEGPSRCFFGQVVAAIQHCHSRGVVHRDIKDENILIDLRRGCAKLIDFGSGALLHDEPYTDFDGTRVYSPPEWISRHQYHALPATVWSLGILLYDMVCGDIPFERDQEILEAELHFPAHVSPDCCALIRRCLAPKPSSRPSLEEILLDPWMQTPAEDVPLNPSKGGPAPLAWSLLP
Method for Pim1 kinase: The activity of Pim 1, Pim 2, & Pim 3 is measured using a homogeneous bead based system quantifying the amount of phosphorylated peptide substrate resulting from kinase-catalyzed phosphoryl transfer to a peptide substrate. Compounds to be tested are dissolved in 100% DMSO and directly distributed to a white 384-well plate at 0.25 μl per well. […] This is followed by the addition of 5 μl/well of Pim 1, Pim 2 or Pim 3 kinase in assay buffer (concentrations described below). Final assay concentrations (described below) are in 2.5% DMSO. The reactions are performed for ˜2 hours, then stopped by the addition of 10 μl of 0.75 μg/ml anti-phospho Ser/Thr antibody (Cell Signaling), 10 μg/ml Protein A AlphaScreen beads (Perkin Elmer), and 10 μg/ml streptavidin coated AlphaScreen beads in stop/detection buffer (50 mM EDTA, 95 mM Tris, pH=7.5, 0.01% Tween-20). The stopped reactions are incubated overnight in the dark. The phosphorylated peptide is detected via an oxygen anion initiated chemiluminescence/fluorescence cascade using the Envision plate reader (Perkin Elmer).

With `C[C@H]1C[C@@H](c2ccncc2NC(=O)c2ccc(F)c(-c3c(F)cc(OCC4CCOCC4)cc3F)n2)C[C@@H](N)[C@]1(C)O` [Example 101, N-(4-((1R,3R,4R,5S)-3-amino-4-hydroxy-4,5-dimethylcyclohexyl)pyridin-3-yl)-6-(2,6-difluoro-4-((tetrahydro-2H-pyran-4-yl)methoxy)phenyl)-5-fluoropicolinamide], the IC50 (commonly the concentration needed to halve the response being measured) was determined as 0.04 nM on Pim1 kinase, 2.21 nM against Pim2 kinase and 0.85 nM against Pim3 kinase. In experiment [1], the EC50 (in general, the concentration giving half of the maximal effect) turned out to be 334 nM.
The corresponding values for `C[C@H]1C[C@@H](c2ccncc2NC(=O)c2ccc(F)c(-c3c(F)cc4c(c3F)OCC4)n2)C[C@@H](N)[C@]1(C)O` [Example 102, N-(4-((1R,3R,4R,5S)-3-amino-4-hydroxy-4,5-dimethylcyclohexyl)pyridin-3-yl)-6-(5,7-difluoro-2,3-dihydrobenzofuran-6-yl)-5-fluoropicolinamide] are 0.02 nM, 1.5 nM, 0.61 nM and 175 nM.
For `C[C@H]1C[C@@H](c2ccncc2NC(=O)c2ccc(F)c(-c3c(F)cc(C(C)(C)C(=O)O)cc3F)n2)C[C@@H](N)[C@]1(C)O` [Example 103, 2-(4-(6-(4-((1R,3R,4R,5S)-3-amino-4-hydroxy-4,5-dimethylcyclohexyl)pyridin-3-ylcarbamoyl)-3-fluoropyridin-2-yl)-3,5-difluorophenyl)-2-methylpropanoic acid] the same measures were 1.43 nM, 14.1 nM, 58.9 nM and above 10000 nM.
The corresponding values for `C[C@H]1C[C@@H](c2ccncc2NC(=O)c2ccc(F)c(-c3c(F)cc(C(F)F)cc3F)n2)C[C@@H](N)[C@]1(C)O` [Example 104, N-(4-((1R,3R,4R,5S)-3-amino-4-hydroxy-4,5-dimethylcyclohexyl)pyridin-3-yl)-6-(4-(difluoromethyl)-2,6-difluorophenyl)-5-fluoropicolinamide] are 0.07 nM, 7.56 nM, 4.37 nM and 823 nM.
Take `C[C@H]1C[C@@H](c2ccncc2NC(=O)c2ccc(F)c(-c3c(F)cc(C4(O)CCC4)cc3F)n2)C[C@@H](O)[C@]1(C)O` [Example 105, 6-(2,6-difluoro-4-(1-hydroxycyclobutyl)phenyl)-N-(4-((1R,3R,4R,5S)-3,4-dihydroxy-4,5-dimethylcyclohexyl)pyridin-3-yl)-5-fluoropicolinamide]: the IC50 on Pim1 kinase was 0.55 nM; at Pim2 kinase, 120 nM; against Pim3 kinase it was 78.3 nM. Besides, the EC50 in experiment [1] turned out to be 2980 nM.
For `CC(C)Oc1cc(F)c(-c2nc(C(=O)Nc3cnccc3[C@H]3C[C@@H](O)[C@](C)(O)[C@@H](C)C3)ccc2F)c(F)c1` [Example 106, 6-(2,6-difluoro-4-isopropoxyphenyl)-N-(4-((1R,3R,4R,5S)-3,4-dihydroxy-4,5-dimethylcyclohexyl)pyridin-3-yl)-5-fluoropicolinamide] the same measures were 0.42 nM, 183 nM, 69.2 nM and 1540 nM.
For `COCCOc1cc(F)c(-c2nc(C(=O)Nc3cnccc3[C@H]3C[C@@H](O)[C@](C)(O)[C@@H](C)C3)ccc2F)c(F)c1` [Example 107, 6-(2,6-difluoro-4-(2-methoxyethoxy)phenyl)-N-(4-((1R,3R,4R,5S)-3,4-dihydroxy-4,5-dimethylcyclohexyl)pyridin-3-yl)-5-fluoropicolinamide] the same measures were 0.89 nM, 253 nM, 74.2 nM and 3180 nM.
Regarding `C[C@H]1C[C@@H](c2ccncc2NC(=O)c2ccc(F)c(-c3c(F)cc(C4CCOCC4)cc3F)n2)C[C@@H](O)[C@]1(C)O` [Example 108, 6-(2,6-difluoro-4-(tetrahydro-2H-pyran-4-yl)phenyl)-N-(4-((1R,3R,4R,5S)-3,4-dihydroxy-4,5-dimethylcyclohexyl)pyridin-3-yl)-5-fluoropicolinamide], the IC50 against Pim1 kinase came to 0.2 nM; against Pim2 kinase it was 66.2 nM; at Pim3 kinase it was 30.7 nM. For the same compound, in experiment [1], the EC50 came to 206 nM.
The corresponding values for `C[C@H]1C[C@@H](c2ccncc2NC(=O)c2ccc(F)c(-c3c(F)cc(N4CCOCC4)cc3F)n2)C[C@@H](O)[C@]1(C)O` [Example 109, 6-(2,6-difluoro-4-morpholinophenyl)-N-(4-((1R,3R,4R,5S)-3,4-dihydroxy-4,5-dimethylcyclohexyl)pyridin-3-yl)-5-fluoropicolinamide] are 0.23 nM, 138 nM, 41.3 nM and 781 nM.
The corresponding values for `C[C@H]1C[C@@H](c2ccncc2NC(=O)c2ccc(F)c(-c3c(F)cc(OCCO)cc3F)n2)C[C@@H](O)[C@]1(C)O` [Example 111, 6-(2,6-difluoro-4-(2-hydroxyethoxy)phenyl)-N-(4-((1R,3R,4R,5S)-3,4-dihydroxy-4,5-dimethylcyclohexyl)pyridin-3-yl)-5-fluoropicolinamide] are 0.83 nM, 173 nM, 38.7 nM and 538 nM.
The corresponding values for `C[C@H]1C[C@@H](c2ccncc2NC(=O)c2ccc(F)c(-c3c(F)cc(OC4CCNCC4)cc3F)n2)C[C@@H](O)[C@]1(C)O` [Example 112, 6-(2,6-difluoro-4-(piperidin-4-yloxy)phenyl)-N-(4-((1R,3R,4R,5S)-3,4-dihydroxy-4,5-dimethylcyclohexyl)pyridin-3-yl)-5-fluoropicolinamide] are 0.11 nM, 56.5 nM, 18.3 nM and 4150 nM.
Take `C[C@H]1C[C@@H](c2ccncc2NC(=O)c2ccc(F)c(-c3c(F)cc(C4(F)CCOCC4)cc3F)n2)C[C@@H](O)[C@]1(C)O` [Example 113, 6-(2,6-difluoro-4-(4-fluorotetrahydro-2H-pyran-4-yl)phenyl)-N-(4-((1R,3R,4R,5S)-3,4-dihydroxy-4,5-dimethylcyclohexyl)pyridin-3-yl)-5-fluoropicolinamide]: the results for the 50% inhibitory concentration (IC50) at Pim1 kinase, on Pim2 kinase and on Pim3 kinase were 0.55 nM, 128 nM and 127 nM, respectively. For the same compound, the EC50 in experiment [1] came out at 248 nM.
The corresponding values for `C[C@H]1C[C@@H](c2ccncc2NC(=O)c2nc(-c3c(F)cc(C(C)(C)O)cc3F)ccc2N)C[C@@H](O)[C@]1(C)O` [Example 114, 3-amino-6-(2,6-difluoro-4-(2-hydroxypropan-2-yl)phenyl)-N-(4-((1R,3R,4R,5S)-3,4-dihydroxy-4,5-dimethylcyclohexyl)pyridin-3-yl)picolinamide] are 0.34 nM, 21.7 nM, 6.93 nM and 924 nM.
The corresponding values for `CCN1CCC(c2cc(F)c(-c3nc(C(=O)Nc4cnccc4[C@H]4C[C@@H](O)[C@](C)(O)[C@@H](C)C4)ccc3F)c(F)c2)CC1` [Example 115, N-(4-((1R,3R,4R,5S)-3,4-dihydroxy-4,5-dimethylcyclohexyl)pyridin-3-yl)-6-(4-(1-ethylpiperidin-4-yl)-2,6-difluorophenyl)-5-fluoropicolinamide] are 0.18 nM, 104 nM, 32.8 nM and 310 nM.
